# Biological target: T1, KRAS G12C 1-169, his-tagged protein, GDP-loaded (Homo sapiens, UniProt P01116, G12C)
# T1 construct: KRAS G12C 1-169, his-tagged protein, GDP-loaded
# Assay: Biochemical assay: covalent modification of KRAS G12C measured by mass spectrometry (RapidFire/TOF or Q-Exactive)
# Settings: covalent binding to KRAS G12C
# Description: Test compounds were prepared as 10 mM stock solutions in DMSO (Fisher cat #BP-231-100). KRAS G12C 1-169, his-tagged protein, GDP-loaded was diluted to 2 μm in buffer (20 mM Hepes, 150 mM NaCl, 1 mM MgCl2). Compounds were tested for activity as follows:
# Compounds were diluted to 50× final test concentration in DMSO in 96-well storage plates. Compound stock solutions were vortexed before use and observed carefully for any sign of precipitation. Dilutions were as follow: • For 100 μM final compound concentration, compounds were diluted to 5000 μM (5 μl 10 mM compound stock+5 μl DMSO and mixed well by pipetting. • For 30 μM final compound concentration, compounds were diluted to 1500 μM (3 μl 10 mM compound stock+17p DMSO) and mixed well by pipetting. • For 10 μM final compound concentration, compounds were diluted to 500 μM (2 μl 10 mM compound stock+38p DMSO) and mixed well by pipetting. 49p of the stock protein solution was added to each well of a 96-well PCR plate (Fisher cat #1423027). 1 μl of the diluted 50× compounds were added to appropriate wells in the PCR plate using 12-channel pipettor. Reactions were mixed carefully and thoroughly by pipetting up/down with a 200·1 multi-channel pipettor. The plate was sealed well with aluminum plate seal, and stored in drawer at room temperature for 30 min, 2 hour or 24 hrs. 5·1 of 2% formic acid (Fisher cat #A117) in DI H2O was then added to each well followed by mixing with a pipette. The plate was then resealed with aluminum seal and stored on dry ice until analyzed as described below.
# The above described assays were analyzed by mass spectrometry according to one of the following two procedures:
# The MS instrument is set to positive polarity, 2 GHz resolution, and low mass (1700) mode and allowed to equilibrate for 30 minutes. The instrument is then calibrated, switched to acquisition mode and the appropriate method loaded.
# After another 30 minute equilibration time, a blank batch (i.e., buffer) is run to ensure equipment is operating properly. The samples are thawed at 37° C. for 10 minutes, briefly centrifuged, and transfer to the bench top. Wells A1 and H12 are spiked with 1 uL 500 uM internal standard peptide, and the plates centrifuged at 2000×g for 5 minutes. The method is then run and masses of each individual well recorded.
# The masses (for which integration data is desired) for each well are pasted into the platemap and exported from the analysis. Masses for the internal standards are exported as well. The data at 50 ppm is extracted for the +19 charge state, and identity of well A1 is assigned using the internal standard spike and integrated. Peak data is exported as a TOF list and the above steps are repeated individually, for the +20, 21, 22, 23, 24, and 25 charge states.
# The masses and peak intensities of KRAS G12C protein species were measured using a Dionex RSLCnano system (Thermo Scientific) connected to a Q Exactive Plus mass spectrometer (Thermo Scientific).
# […] of sample was each loaded onto a Aeris™ 3.6 μm WIDEPORE C4 200 Å, LC Column 50×2.1 mm column maintained at 40° C. at a flow rate of 600 μl min^−1 with […] (0.1% formic acid in acetonitrile). The liquid chromatography conditions were 20% solvent B for 1 min, 20% to 60% solvent B for 1.5 min, 60% to 90% solvent for 0.5 min, 90% solvent B for 0.2 min, 90% to 20% solvent B for 0.2 min, and then equilibrated for 1.6 min before the following sample injection. The flow rate was maintained at 600 μl min^−1 throughout the sample analysis.
# The mass spectrometer was operated in profile mode at a resolution of 17500, 5 microscans, using 50 msec max injection time and an AGC target of 1e6, and a full mass range from 800-1850 m/z was recorded. The HCD trapping gas was optimized for maximum sensitivity for intact proteins. […]
SMILES,Binding % (compounds of structure (I)),other results
"C=CC(=O)N1CCN(c2nc(NC3CCN(CC4CC4)CC3)nc3c(F)c(-c4c(O)cccc4F)c(Cl)cc23)CC1 [Example I-110, 1-(4-(6-chloro-2-(1-(cyclopropyl-methyl)piperidin-4-ylamino)-8-fluoro-7-(2-fluoro-6-hydroxyphenyl)quinazolin-4-yl)piperazin-1-yl) prop-2-en-1-one]",+++ (+++ indicates binding activity greater than 90%),–
"C=CC(=O)N1CCN(c2nc(N3CC(N(CC)CC)C3)nc3c(F)c(-c4c(O)cccc4F)c(Cl)cc23)CC1 [Example I-131, 1-(4-(6-chloro-2-(3-(diethyl-amino)azetidin-1-yl)-8-fluoro-7-(2-fluoro-6-hydroxyphenyl)quinazolin-4-yl)piperazin-1-yl) prop-2-en-1-one]",+++ (+++ indicates binding activity greater than 90%),–
"C=CC(=O)N1CCN(c2nc(OC3CCN(C)CC3)nc3c(F)c(-c4cc(O)cc5ccccc45)c(Cl)cc23)CC1 [Example I-93, 1-(4-(6-chloro-8-fluoro-7-(3-hydroxy-naphthalen-1-yl)-2-(1-methyl-piperidin-4-yloxy)quinazolin-4-yl)piperazin-1-yl)prop-2-en-1-one]",+++ (+++ indicates binding activity greater than 90%),–
"C=CC(=O)N1CCN(c2nc(OCC3CN(c4ncccn4)C3)nc3c(F)c(-c4c(C)ccc5[nH]ncc45)c(Cl)cc23)CC1 [Example I-170, 1-(4-(6-chloro-8-fluoro-7-(5-methyl-1H-indazol-4-yl)-2-((1-(pyrimidin-2-yl)azetidin-3-yl)methoxy)quinazolin-4-yl)piperazin-1-yl) prop-2-en-1-one]",++ (++ indicates binding activity from 50 to 90%),–
"C=CC(=O)Nc1ncc(-c2ncnc3c(F)c(-c4c(O)cccc4F)c(Cl)cc23)s1 [II-13, N-(5-(6-chloro-8-fluoro-7-(2-fluoro-6-hydroxyphenyl)quinazolin-4-yl)thiazol-2-yl)acrylamide]",–,Binding % (compounds of structure (II)): ++ (++ indicates binding activity greater than 50% and less than 75%)
"C=CC(=O)N1[C@H](C)CN(c2ncnc3c(F)c(-c4c(O)cccc4F)c(Cl)cc23)C[C@@H]1C (atropisomer, axis not shown) [III-6]",–,Binding % (compounds of structure (III)): +++ (+++ indicates binding activity greater than 90%)
"C=CC(=O)N1CCN(c2nc(OCCC3CCN(C(C)C)CC3)nc3c(F)c(-c4c(O)cccc4F)c(Cl)cc23)CC1 [Example I-180, 1-(4-(6-chloro-8-fluoro-7-(2-fluoro-6-hydroxyphenyl)-2-(2-(1-isopropyl-piperidin-4-yl)ethoxy)quinazolin-4-yl)piperazin-1-yl) prop-2-en-1-one]",+++ (+++ indicates binding activity greater than 90%),–
"C=CC(=O)N1CCN(c2ncnc3c(F)c(-c4c(O)cccc4F)c(Cl)cc23)CC1CO (stereo not shown) [III-8, 1-(4-(6-chloro-8-fluoro-7-(2-fluoro-6-hydroxy-phenyl)quinazolin-4-yl)-2-(hydroxy-methyl)piperazin-1-yl)prop-2-en-1-one]",–,Binding % (compounds of structure (III)): ++ (++ indicates activity from 50% to 90%)
"C=CC(=O)N1CCN(c2nc(NC3CCN(CC(F)F)CC3)nc3c(F)c(-c4c(C)ccc5[nH]ncc45)c(Cl)cc23)CC1 [Example I-167, 1-(4-(6-chloro-2-((1-(2,2-difluoroethyl)piperidin-4-yl)amino)-8-fluoro-7-(5-methyl-1H-indazol-4-yl)quinazolin-4-yl)piperazin-1-yl) prop-2-en-1-one]",++ (++ indicates binding activity from 50 to 90%),–
"C=CC(=O)N1CCN(c2nc(OCc3cccc(C#N)n3)nc3c(F)c(-c4c(O)cccc4F)c(Cl)cc23)CC1 [Example I-122, 6-((4-(4-acryloyl-piperazin-1-yl)-6-chloro-8-fluoro-7-(2-fluoro-6-hydroxyphenyl)quinazolin-2-yloxy)methyl) picolinonitrile]",+++ (+++ indicates binding activity greater than 90%),–
"C=CC(=O)N1CCN(c2nc(OCCP(C)(C)=O)nc3c(F)c(-c4c(O)cccc4F)c(Cl)cc23)CC1 [Example I-206, 1-(4-(6-chloro-2-(2-(dimethyl-phosphoryl)ethoxy)-8-fluoro-7-(2-fluoro-6-hydroxyphenyl)quinazolin-4-yl)piperazin-1-yl) prop-2-en-1-one]",+++ (+++ indicates binding activity greater than 90%),–
"C=CC(=O)N1CCN(c2nc(NC3CCN(C4CC4)CC3)nc3c(F)c(-c4c(O)cccc4F)c(Cl)cc23)CC1 (atropisomer, axis not shown) [Example I-79, (R)-1-(4-(6-chloro-2-(1-cyclopropyl-piperidin-4-ylamino)-8-fluoro-7-(2-fluoro-6-hydroxyphenyl)quinazolin-4-yl)piperazin-1-yl) prop-2-en-1-one]",+ (+ indicates binding activity up to 50%),–
"C=CC(=O)N1CCN(c2nc(OCCc3ccccn3)nc3c(F)c(-c4c(O)cccc4F)c(Cl)cc23)CC1 (atropisomer, axis not shown) [Example I-103, (S)-1-(4-(6-chloro-8-fluoro-7-(2-fluoro-6-hydroxyphenyl)-2-(2-(pyridin-2-yl)ethoxy)quinazolin-4-yl)piperazin-1-yl) prop-2-en-1-one]",+++ (+++ indicates binding activity greater than 90%),–
C=CC(=O)N1[C@H](C)CN(c2c(C#N)cnc3c(F)c(-c4c(O)cccc4F)c(Cl)cc23)C[C@@H]1C [III-43],–,Binding % (compounds of structure (III)): ++ (++ indicates activity from 50% to 90%)
"C=CC(=O)N1CCN(c2nc(OCC3CCN(C4CC4)CC3)nc3c(F)c(-c4c(C)ccc5[nH]ncc45)c(Cl)cc23)CC1 [Example I-203, 1-(4-(6-chloro-2-((1-cyclopropyl-piperidin-4-yl)methoxy)-8-fluoro-7-(5-methyl-1H-indazol-4-yl)quinazolin-4-yl)piperazin-1-yl) prop-2-en-1-one]",++ (++ indicates binding activity from 50 to 90%),–
"C=CC(=O)N1CCN(c2nc(N3CC(N(C)C)C3)nc3c(F)c(-c4c(O)cccc4F)c(Cl)cc23)CC1 [Example I-55, 1-(4-(6-chloro-2-(3-(dimethyl-amino)azetidin-1-yl)-8-fluoro-7-(2-fluoro-6-hydroxyphenyl)quinazolin-4-yl)piperazin-1-yl) prop-2-en-1-one]",+++ (+++ indicates binding activity greater than 90%),–
"C=CC(=O)N1CCN(c2nc(N3CC4(CN(C)C4)C3)nc3c(F)c(-c4c(C)ccc5[nH]ncc45)c(Cl)cc23)CC1 [Example I-157, 1-(4-(6-chloro-8-fluoro-7-(5-methyl-1H-indazol-4-yl)-2-(6-methyl-2,6-diazaspiro [3.3]heptan-2-yl)quinazolin-4-yl)piperazin-1-yl) prop-2-en-1-one]",+++ (+++ indicates binding activity greater than 90%),–
C=CC(=O)N1CCN(c2nc(OC3CCN(C4CC4)CC3)nc3c(F)c(-c4c(C)ccc5[nH]ncc45)c(Cl)cc23)CC1 [Example I-138],+++ (+++ indicates binding activity greater than 90%),–
"C=CC(=O)N1CCN(c2nc(OCCN3CCN(C(C)C)CC3)nc3c(F)c(-c4c(O)cccc4F)c(Cl)cc23)CC1 [Example I-42, 1-(4-(6-chloro-8-fluoro-7-(2-fluoro-6-hydroxyphenyl)-2-(2-(4-isopropyl-piperazin-1-yl)ethoxy)quinazolin-4-yl)piperazin-1-yl)prop-2-en-1-one]",+++ (+++ indicates binding activity greater than 90%),–
